The melting point is the temperature of the solid-liquid transition.

Consider 8 compounds from patent publication US20230087351A1, “METHYL 2-ALLYL-1 -METHYL-3-OXOINDOLINE-2-C[…] 9A-ALLYL-1,2,3,9A-TETRAHYDRO- 9H-PYRROLO[1,2-A]INDOL-9-ONE DERIVATIVES AND RELATED COMPOUNDS FOR USE AS F[…] FOR LABELLING OF DRUGS, AMINO ACIDS AN PROTEINS” (UNIVERSITY OF SALFORD, priority 2019, published 2023).

Chain of δ-opioid receptors (P41143 whole entry): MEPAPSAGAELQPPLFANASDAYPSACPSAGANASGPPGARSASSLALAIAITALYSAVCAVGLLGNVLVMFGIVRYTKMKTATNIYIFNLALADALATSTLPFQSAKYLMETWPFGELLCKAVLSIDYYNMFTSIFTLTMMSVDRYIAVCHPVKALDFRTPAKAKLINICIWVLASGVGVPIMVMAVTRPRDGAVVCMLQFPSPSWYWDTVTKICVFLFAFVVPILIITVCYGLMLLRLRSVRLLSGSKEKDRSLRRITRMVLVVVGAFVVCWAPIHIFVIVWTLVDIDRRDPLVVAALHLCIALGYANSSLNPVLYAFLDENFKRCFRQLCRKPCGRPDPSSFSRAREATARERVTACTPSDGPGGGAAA

Test system in the first data set: not given
Conditions: not given
In the case of `C=CC(C)C1(C(=O)OC)C(=O)c2c(OC)cccc2N1C` (stereo not drawn), the melting point fell in the range of 89 to 91 °C.

Consider `C=CCC1(C(=O)OC)C(=O)c2c(ccc3ccccc23)N1C` (stereo not drawn), for which the melting point is 144 to 147 °C.

Compound `C=CCC1(C(=O)OC)C(=O)c2c(C)cccc2N1C` (stereo not drawn) gave a melting point of 98 to 100 °C.

`C=CC(C)(C)C1(C(=O)OC)C(=O)c2c(OC)cccc2N1C` (stereo not drawn) displayed a melting point of 86 to 88 °C.

Consider `C=CCC1(C(=O)OC)C(=O)c2c(OC)cccc2N1C` (stereo not drawn), for which the melting point lay within 125 to 127 °C.

Take `C=CCC1(C(=O)OC)C(=O)c2ccccc2N1C` (stereo not drawn): the melting point was in the range of 90 to 93 °C.

`C=CCC1(C(=O)OC)C(=O)c2cc(OC)ccc2N1C` (stereo not drawn) gave a melting point of 99 to 101 °C.

The target of the next data set is μ-opioid receptors (Homo sapiens, UniProt P35372). Particulars: relative to morphine; cited from earlier work.
Chain of μ-opioid receptors (P35372 whole entry): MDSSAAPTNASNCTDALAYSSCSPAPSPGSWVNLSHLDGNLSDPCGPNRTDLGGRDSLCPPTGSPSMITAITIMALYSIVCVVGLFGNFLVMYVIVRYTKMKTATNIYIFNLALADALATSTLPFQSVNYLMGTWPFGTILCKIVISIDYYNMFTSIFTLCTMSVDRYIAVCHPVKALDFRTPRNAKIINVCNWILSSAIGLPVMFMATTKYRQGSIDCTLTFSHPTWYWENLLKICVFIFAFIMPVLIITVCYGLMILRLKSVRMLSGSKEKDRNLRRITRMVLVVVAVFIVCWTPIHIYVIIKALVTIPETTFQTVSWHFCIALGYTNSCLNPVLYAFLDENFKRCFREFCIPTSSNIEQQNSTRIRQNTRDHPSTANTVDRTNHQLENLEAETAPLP
For the compound `CC[C@@H]1CN2CC[C@]3(Nc4cccc(OC)c4C3=O)[C@@H]2C[C@@H]1/C(=C\OC)C(=O)OC` [mitrogynine pseudoindoxyl], the “higher potency than morphine at μ-opioid receptors” value is on record as 20 fold.

A further data set addresses δ-opioid receptors (Homo sapiens, UniProt P41143). Particulars: relative to morphine; cited from earlier work.
Turning to `CC[C@@H]1CN2CC[C@]3(Nc4cccc(OC)c4C3=O)[C@@H]2C[C@@H]1/C(=C\OC)C(=O)OC` [mitrogynine pseudoindoxyl], the “higher potency than morphine at δ-opioid receptors” value is recorded as 35 fold.
